Like-named read-outs stand apart in the source and are kept apart here.

The target of one test is cereblon (CRBN) (Homo sapiens, UniProt Q96SW2). Put plainly: Kd and % inhibition from FI. It is filed as binding.
The next test deals with T1, CRBN (Homo sapiens, UniProt Q96SW2).
T1 construct: endogenous in cells; host or cells: primary human T cells / CD8+ T cells from peripheral blood
As to the kind of experiment: Western blot for expression of CRBN relative to vinculin in human T cells (CRBN degradation). Type of test: cell-based. Particulars: for remaining activity at 10 µM / remaining activity at 0.01 µM: read-out: Relative Density of CRBN (% of DMSO); for remaining activity at 0.01 µM: 24 h, 10nM, human T cells, 24 hours; for CRBN Degradation ** (WB): grade (+) to (++++) or words, key not given. The text has this:
Bortez=bortezomib; MG132=proteasome inhibitor; MLN4924=NEDD8 inhibitor.
This assay is a standard Western blot assay for expression of CRBN relative to vinculin.
[…] 0.1 percent DMSO was used as a vehicle control.
On the technique in general: Immunoblotting shows a protein as a band on a membrane.

T1 sequence (Q96SW2 whole entry): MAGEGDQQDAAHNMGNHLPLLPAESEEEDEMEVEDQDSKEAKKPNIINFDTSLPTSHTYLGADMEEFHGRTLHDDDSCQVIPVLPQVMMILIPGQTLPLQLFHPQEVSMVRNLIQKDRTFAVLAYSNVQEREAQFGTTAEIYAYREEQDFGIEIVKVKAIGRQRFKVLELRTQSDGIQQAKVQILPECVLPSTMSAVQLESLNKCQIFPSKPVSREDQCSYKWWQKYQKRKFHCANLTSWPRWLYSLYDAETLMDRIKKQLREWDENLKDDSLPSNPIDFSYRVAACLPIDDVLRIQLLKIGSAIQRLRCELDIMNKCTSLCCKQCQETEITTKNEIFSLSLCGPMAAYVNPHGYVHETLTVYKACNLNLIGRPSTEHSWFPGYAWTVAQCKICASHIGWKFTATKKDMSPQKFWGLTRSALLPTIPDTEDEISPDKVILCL
cereblon (CRBN), sequence (Q96SW2 whole entry, species assumed): as the sequence (Q96SW2 whole entry) above

As to `Cc1sc2c(c1C)C(c1ccc(Cl)cc1)=N[C@H](CC(=O)NCCCCC(=O)NC1CCC(=O)NC1=O)c1nnc(C)n1-2` (stereo partly drawn) [EC2-092], the Kd at cereblon (CRBN) (cell does not state FI or ITC, read-out: Kd (A) FI/ITC) was found to be 226 ± 21.6 µM.
Regarding `Cc1ncsc1-c1ccc(CNC(=O)[C@@H]2C[C@@H](O)CN2C(=O)[C@@H](NC(=O)COCCOCCOCCOCCCc2cccc3c2CN(C2CCC(=O)NC2=O)C3=O)C(C)(C)C)cc1` (stereo partly drawn) [SR3-108, (2S,4R)-1-((2S)-2-(tert-Butyl)-18-(2-(2,6-dioxopiperidin-3-yl)-1-oxoisoindolin-4-yl)-4-oxo-6,9,12,15-tetraoxa-3-azaoctadecanoyl)-4-hydroxy-N-(4-(4-methylthiazol-5-yl)benzyl)pyrrolidine-2-carboxamide], the Kd on cereblon (CRBN) (FI, read-out: Kd (FI) (converted)) is 13.6 ± 1.51 µM.
With `Cc1nc2cccc(CCc3ccc(CCc4cccc5nc(C)n(C6CCC(=O)NC6=O)c(=O)c45)cc3)c2c(=O)n1C1CCC(=O)NC1=O` (stereo not drawn) [XS01-038, 3,3′-((1,4-Phenylenebis(ethane-2,1-diyl))bis(2-methyl-4-oxoquinazoline-5,3(4H)-diyl))bis(piperidine-2,6-dione)], at CRBN, the remaining activity at 10 µM was found to be 133%, the remaining activity at 0.01 µM stood at 29% and the “CRBN Degradation ** (WB)” value is reported as “No degradation”.
Take `O=C1CCC(NC(=O)c2cccc(NC(=O)CCCCCCC(=O)Nc3cccc(C(=O)NC4CCC(=O)NC4=O)c3)c2)C(=O)N1` (stereo not drawn) [XS01-050, N^1,N^8-Bis(3-((2,6-dioxopiperidin-3-yl)carbamoyl)phenyl)octanedimide]: at CRBN, the remaining activity at 10 µM turned out to be 20% and the remaining activity at 0.01 µM was 168%.
For `Cc1nc2c(NC(=O)c3ccc(C(=O)Nc4cccc5c(=O)n(C6CCC(=O)NC6=O)c(C)nc45)cc3)cccc2c(=O)n1C1CCC(=O)NC1=O` (stereo not drawn) [XS01-059], on CRBN, the remaining activity at 10 µM came out at 356%, the remaining activity at 0.01 µM was found to be 69.2% and the “CRBN Degradation ** (WB)” value was “No Degradation”.
`O=C1C[C@H](NC(=O)c2cccc(NC(=O)CCCCCCC(=O)Nc3cccc(C(=O)N[C@H]4CC(=O)NC4=O)c3)c2)C(=O)N1` [XS01-066, N^1,N^8-Bis(3-(((S)-2,5-dioxopyrrolidin-3-yl)carbamoyl)phenyl)octanediamide]: on CRBN, the remaining activity at 10 µM turned out to be 157%.
In the case of `O=C1CCC(NC(=O)c2cccc(NC(=O)CCCCCCCCC(=O)Nc3cccc(C(=O)NC4CCC(=O)NC4=O)c3)c2)C(=O)N1` (stereo not drawn) [XS01-075, N^1,N^10-Bis(3-((2,6-dioxopiperidin-3-yl)carbamoyl)phenyl)decanediamide], the remaining activity at 10 µM on CRBN was determined as 63.4%.
Regarding `O=C1C[C@H](NC(=O)CCCCCCCCC(=O)N[C@H]2CC(=O)NC2=O)C(=O)N1` [XS01-081, N^1,N^10-Bis((S)-2,5-dioxopyrrolidin-3-yl)decanediamide], the remaining activity at 10 µM at CRBN turned out to be 35%.
On to `O=C1CCC(NC(=O)CCCCCCC(=O)NC2CCC(=O)NC2=O)C(=O)N1` (stereo not drawn) [XS01-093, N^1,N^8-Bis(2,6-dioxopiperidin-3-yl)octanediamide], for which, at CRBN, the remaining activity at 10 µM came out at 133% and the remaining activity at 0.01 µM was determined as 116%.
As for `O=C1CCC(NC(=O)CCCC(=O)NC2CCC(=O)NC2=O)C(=O)N1` (stereo not drawn) [XS01-095, N^1,N^5-Bis(2,6-dioxopiperidin-3-yl)glutaramide], at CRBN, the remaining activity at 10 µM came out at 104% and the remaining activity at 0.01 µM amounted to 84.6%.
Take `O=C1CCC(N2Cc3c(NC(=O)CCCc4cn(CC(=O)Nc5cccc6c5CN(C5CCC(=O)NC5=O)C6=O)nn4)cccc3C2=O)C(=O)N1` (stereo not drawn) [XS01-109, N-(2-(2,6-Dioxopiperidin-3-yl)-1-oxoisoindolin-4-yl)-4-(1-(2-((2-(2,6-dioxopiperidin-3-yl)-1-oxoisoindolin-4-yl)amino)-2-oxoethyl)-1H-1,2,3-triazol-4-yl)butanamide]: on CRBN, the remaining activity at 10 µM was found to be 132% and the remaining activity at 0.01 µM amounted to 213%.
Consider `O=C1CCC(N2Cc3c(NC(=O)CCc4cn(CC(=O)Nc5cccc6c5CN(C5CCC(=O)NC5=O)C6=O)nn4)cccc3C2=O)C(=O)N1` (stereo not drawn) [XS01-113, N-(2-(2,6-dioxopiperidin-3-yl)-1-oxoisoindolin-4-yl)-3-(1-(2-((2-(2,6-dioxopiperidin-3-yl)-1-oxoisoindolin-4-yl)amino)-2-oxoethyl)-1H-1,2,3-triazol-4-yl)propanamide], for which, at CRBN, the remaining activity at 10 µM stood at 106% and the remaining activity at 0.01 µM is 225%.
On to `O=C1CCC(N2Cc3c(NC(=O)CCCc4cn(CC(=O)Nc5cccc6c5C(=O)N(C5CCC(=O)NC5=O)C6=O)nn4)cccc3C2=O)C(=O)N1` (stereo not drawn) [XS01-122, 4-(1-(2-((2-(2,6-Dioxopiperidin-3-yl)-1,3-dioxoisoindolin-4-yl)amino)-2-oxoethyl)-1H-1,2,3-triazol-4-yl)-N-(2-(2,6-dioxopiperidin-3-yl)-1-oxoisoindolin-4-yl)butanamide], for which, at CRBN, the remaining activity at 10 µM is 151% and the remaining activity at 0.01 µM amounted to 255%.
`Cc1nc2cccc(NC(=O)Cn3cc(CCCC(=O)Nc4cccc5c4CN(C4CCC(=O)NC4=O)C5=O)nn3)c2c(=O)n1C1CCC(=O)NC1=O` (stereo not drawn) [XS01-123, N-(2-(2,6-Dioxopiperidin-3-yl)-1-oxoisoindolin-4-yl)-4-(1-(2-((3-(2,6-dioxopiperidin-3-yl)-2-methyl-4-oxo-3,4-dihydroquinazolin-5-yl)amino)-2-oxoethyl)-1H-1,2,3-triazol-4-yl)butanamide]: on CRBN, the remaining activity at 10 µM is 151% and the remaining activity at 0.01 µM came to 243%.
`O=C1CCC(N2Cc3c(NC(=O)CCc4cn(CC(=O)Nc5cccc6c5C(=O)N(C5CCC(=O)NC5=O)C6=O)nn4)cccc3C2=O)C(=O)N1` (stereo not drawn) [XS01-125, 3-(1-(2-((2-(2,6-Dioxopiperidin-3-yl)-1,3-dioxoisoindolin-4-yl)amino)-2-oxoethyl)-1H-1,2,3-triazol-4-yl)-N-(2-(2,6-dioxopiperidin-3-yl)-1-oxoisoindolin-4-yl)propanamide]: on CRBN, the remaining activity at 10 µM turned out to be 153% and the remaining activity at 0.01 µM came out at 196%.
`O=C1CCC(N2C(=O)c3cccc(NC(=O)CCc4cn(CC(=O)Nc5cccc6c5C(=O)N(C5CCC(=O)NC5=O)C6=O)nn4)c3C2=O)C(=O)N1` (stereo not drawn) [XS01-126, N-(2-(2,6-Dioxopiperidin-3-yl)-1,3-dioxoisoindolin-4-yl)-3-(1-(2-((2-(2,6-dioxopiperidin-3-yl)-1,3-dioxoisoindolin-4-yl)amino)-2-oxoethyl)-1H-1,2,3-triazol-4-yl)propanamide]: at CRBN, the remaining activity at 10 µM turned out to be 131% and the remaining activity at 0.01 µM was determined as 207%.
As to `Cc1nc2cccc(NC(=O)Cn3cc(CCC(=O)Nc4cccc5c4CN(C4CCC(=O)NC4=O)C5=O)nn3)c2c(=O)n1C1CCC(=O)NC1=O` (stereo not drawn) [XS01-127, N-(2-(2,6-Dioxopiperidin-3-yl)-1-oxoisoindolin-4-yl)-3-(1-(2-((3-(2,6-dioxopiperidin-3-yl)-2-methyl-4-oxo-3,4-dihydroquinazolin-5-yl)amino)-2-oxoethyl)-1H-1,2,3-triazol-4-yl)propanamide], at CRBN, the remaining activity at 10 µM turned out to be 175% and the remaining activity at 0.01 µM is 228%.
As to `Cc1nc2cccc(NC(=O)CCc3cn(CC(=O)Nc4cccc5nc(C)n(C6CCC(=O)NC6=O)c(=O)c45)nn3)c2c(=O)n1C1CCC(=O)NC1=O` (stereo not drawn) [XS01-132, N-(3-(2,6-dioxopiperidin-3-yl)-2-methyl-4-oxo-3,4-dihydroquinazolin-5-yl)-3-(1-(2-((3-(2,6-dioxopiperidin-3-yl)-2-methyl-4-oxo-3,4-dihydroquinazolin-5-yl)amino)-2-oxoethyl)-1H-1,2,3-triazol-4-yl)propanamide], on CRBN, the remaining activity at 10 µM turned out to be 98.3% and the remaining activity at 0.01 µM came out at 199%.

Source of the values: patent US20250288573A1 (H. LEE MOFFITT CANCER CENTER AND RESEARCH INSTITUTE, INC., priority 2018, published 2025).
